In one test the target is T1, bovine rhodopsin (Bos taurus, UniProt P02699).
T1 construct: The washed ROS with isotonic and hypotonic buffers was used as described above; from tissue; host or cells: bovine rod outer segments (ROS)
Briefly: rhodopsin Meta II decay assay (Trp265 intrinsic fluorescence). Conditions: 100 μM compound. Here is the method:
However, oligomerization of isorhodopsin could affect the chromophore release from opsin. The chromophore release can be measured sensitively by the light-induced increase in intrinsic fluorescence of the Trp^265 residue that occurs upon release of the chromophore after illumination ([43]).
The washed ROS with isotonic and hypotonic buffers was used as described above. The solubilized rhodopsin at 1.05 mg/ml in 20 mM 1,3-bis(tris(hydroxymethyl)methylamino) propane, pH 6.9, 100 mM NaCl, and 1 mM LMNG buffer was incubated for 5 min at 20 °C with 0.7 μl of 100 mM stock solutions of the nine identified hit compounds (100 μM final concentration) in DMSO and centrifuged at 1000g for an additional 5 min. Next, photobleaching was carried out with a 150-W fiber light delivered through a 480 to 520 nm band pass filter (Chroma Technology) for 10 s. Samples were subjected to fluorescence measurements acquired through 150 s in triplicate. The results were analyzed with an L55 luminescence spectrophotometer (PerkinElmer) operating at excitation and emission wavelengths of 300 nm and 335 nm, respectively.

The test system of test [1] is individual rod photoreceptors. Briefly: single-cell suction electrode recording from rod outer segments. It is filed as cell-based, mouse (C57BL/6J). Conditions: suction electrode, 250 μM compound. The protocol: Because it is possible that reduction of Rmax by compound #1 is due to some effect(s) on the rod photoreceptor inner segment currents that are not directly related to phototransduction ([51], [52]), we conducted also single-cell suction electrode recordings from the ROS from samples that were incubated either in the control medium or in the medium containing enhancer compound #1. The results from single cell recordings were similar to those obtained using ex vivo ERG: Rmax and fractional sensitivity were decreased from 12 (±0.4) to 9 (±0.3) pA and from 3.0 (±0.5) to 1.8 (±0.1)% per photon μm^−2, respectively, by rhodopsin dimerization–enhancing hit #1 (Fig. 6, A–C). Like the ex vivo ERG recordings, light response kinetics was not affected by compound #1 in the single-cell recordings (Fig. 6D).
Suction electrode recordings from individual rod photoreceptors of dark-adapted C57BL/6J mice were conducted as described previously ([65]). Before recordings, isolated retinas were incubated in the control medium (Ames’ medium + 0.1% DMSO) or in the hit compound–containing medium (Ames’ medium +250 μM F2502-0030 (#1)) as described above for ex vivo ERG experiments. After incubation, one half of the retina was chopped with a razor blade and transferred into a chamber where it was perfused at 1 ml/min with Ames’ medium saturated with 95% O2/5% CO2 at 35 °C. Recordings were made from a single ROS, using borosilicate glass electrodes with ∼1.5-μm opening (resistance ∼2 MΩ at 35 °C). The pipette solution was Hepes buffered Ames’ medium composed of 0.88 g Ames’ powder (A1420, Sigma-Aldrich), 0.357 g Hepes (Sigma-Aldrich), and 58.44 mg NaCl in […] distilled and vacuum-filtered water. The pH was adjusted to 7.4 with NaOH. Light responses were recorded to flashes of light ranging from 8 to 700 photons μm^−2 at 500 nm. For analysis, data were low-pass filtered using an 8-pole Bessel filter with cut-off frequency at 30 Hz.

Test [2] concerns the target rhodopsin (isorhodopsin) dimerization (Homo sapiens, UniProt P08100). Description: rhodopsin dimerization BRET assay in HEK293 opsin-Rluc/opsin-Venus cells. It is filed as cell-based. Set-up: expressed in transfected cells; host or cells: HEK293 (human embryonic kidney 293) opsin-Rluc / opsin-Venus cell lines. Conditions: HEK293 opsin-Rluc/opsin-Venus cells regenerated with 9-cis-retinal; triplicates; read from Fig. 3B,E. An excerpt: To identify small molecules that target rhodopsin dimerization, a cell-based high-throughput screening (HTS) assay was used to screen a diverse library of 50,000 compounds from Life Chemicals. The human osteosarcoma (U2OS) stable cell line was used, which expresses opsin fused with complimentary subunits of β-galactosidase (β-gal), namely, the enzyme acceptor large β-gal subunit (EA) and the enzyme donor, small subunit of β-gal (PK). Upon rhodopsin self-association in vitro, a competent β-gal was formed and chemiluminescent signal was generated in the presence of β-gal substrate (Fig. 1A). For further validation, the β-gal activity assay was used to counter-screen and rule out false positives, affecting the activity of β-gal without affecting rhodopsin (Fig. 1B) ([34]). In an orthogonal assay, rhodopsin dimerization was assessed using a bioluminescence resonance energy transfer (BRET) assay with human embryonic kidney 293 cells expressing opsin fused with Renilla luciferase and opsin fused with Venus (Fig. 1C) ([35], [36]). To form functional visual pigment, opsin-fused proteins were regenerated with 9-cis-retinal to form so-called isorhodopsin ([37]). We chose 9-cis-retinal over photoreceptor-endogenous 11-cis-retinal because of its availability and the prohibitive cost for HTS assays with the native chromophore. Rhodopsin and isorhodopsin have similar biochemical and spectral properties (see ([38])).
Identified hits from the β-gal complementation assay were subjected to the previously developed BRET assay, using human embryonic kidney 293 opsin–Renilla luciferase and opsin-Venus cell lines ([37]). Cultured cells were diluted to 2 × 10^5 cells/ml in the medium containing 10% fetal bovine serum (Thermo Fisher Scientific) and 1% penicillin-streptomycin (10,000 U/ml; Thermo Fisher Scientific), and 20 μl/well of the cell diluent was dispensed into a white ViewPlate-384 (PerkinElmer). Cells were cultured overnight at 37 °C in 5% CO2, and under a dim red light, cells were treated with 9-cis-retinal at 7.5 μM final concentration. The next day, cells were treated with the identified hit compounds from the β-gal complementation assay at 180 μM down to 2.4 nM concentrations, and 1 μM final concentration of TM5 peptide ([…]-NH2; EZBiolab) serving as the control. On the following day, the culture medium was aspirated and replaced with 90 μl/well of PBS containing pivaloyloxymethyl acetoxycoelenterazine h (Dalton Research Molecules) at 600 μM concentration followed by incubation at 20 °C for 40 min ([35]). Dual luminescence readings at 480 and 530 nm were performed using a SpectraMax L plate reader with the BRET1 filter set (Molecular Devices).
(In general: In BRET a luciferase serves as donor, and the signal depends on an acceptor being close.)

SMILES strings stand for the structures.

T1 sequence (P02699 whole entry): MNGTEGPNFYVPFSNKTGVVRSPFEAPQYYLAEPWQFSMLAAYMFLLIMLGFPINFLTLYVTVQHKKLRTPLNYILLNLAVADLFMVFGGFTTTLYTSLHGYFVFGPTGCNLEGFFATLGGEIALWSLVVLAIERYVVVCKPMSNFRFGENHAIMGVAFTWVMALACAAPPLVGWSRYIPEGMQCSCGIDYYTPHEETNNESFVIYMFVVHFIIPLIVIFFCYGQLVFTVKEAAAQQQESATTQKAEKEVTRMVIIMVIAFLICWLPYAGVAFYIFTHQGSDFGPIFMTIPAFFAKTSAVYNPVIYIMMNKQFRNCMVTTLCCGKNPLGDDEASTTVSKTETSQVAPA
rhodopsin (isorhodopsin) dimerization, sequence (P08100 whole entry, the tested form may be a part): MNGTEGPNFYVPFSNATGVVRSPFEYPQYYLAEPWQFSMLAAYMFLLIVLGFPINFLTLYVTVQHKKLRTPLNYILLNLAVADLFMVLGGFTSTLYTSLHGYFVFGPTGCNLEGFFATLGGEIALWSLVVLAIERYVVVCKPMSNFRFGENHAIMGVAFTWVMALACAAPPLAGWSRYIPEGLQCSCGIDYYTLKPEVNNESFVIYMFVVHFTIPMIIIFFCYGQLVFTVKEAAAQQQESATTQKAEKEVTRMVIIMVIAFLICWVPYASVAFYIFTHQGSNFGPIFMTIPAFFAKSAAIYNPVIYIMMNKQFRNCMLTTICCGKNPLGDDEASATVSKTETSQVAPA

Usually EC50 stands for the midpoint of the concentration-response curve. A lower EC50 goes with greater potency. Consider `O=C(CSc1nnc(NC(=O)Cc2ccc(F)cc2)s1)NO` [#1], for which the “light-induced increase in Trp265 intrinsic fluorescence vs DMSO-treated isorhodopsin” value at bovine rhodopsin is given as “significantly quenched”. In addition, the “Meta II decay rate (slope of intrinsic fluorescence over 150 s) relative to DMSO control” value on bovine rhodopsin (bleached rhodopsin, p < 0.0001) was “statistically significant signal reduction”. For the same compound, in test [1], the “light response kinetics (single-cell)” value is “not affected”. In addition, the “fractional sensitivity (single-cell)” value in test [1] (control 3.0 (±0.5)) is given as 1.8 (±0.1) % per photon μm^−2. In addition, the “Rmax (single-cell)” value in test [1] (control 12 (±0.4)) is reported as 9 (±0.3) pA. This compound also returned an EC50 in test [2] of 2.34 µM.

For the origin of these results see PMC8665362, “Identification of small-molecule allosteric modulators that act as enhancers/disrupters of rhodopsin oligomerization” (The Journal of Biological Chemistry, 2021).
